# Measurements as given in patent publication US20150293106A1, “DIAROMATIC AMINO ACID SUBSTRATE FOR CATHEPSIN DETECTION” (INDUSTRY-ACADEMIC COOPERATION FOUNDATION, YONSEI UNIVERSITY, priority 2012, published 2015).
# “Also recorded” adds a separate entry of the source. Marks after values point to notes of the source that are not given here.
# Key:
# [1] = test system: cysteine protease (papain, chymopapain, bromelain); assay: Protease-catalyzed hydrolysis, restored DBDY fluorescence (selectivity, FIGS. 11-19); format: biochemical, papaya latex; pineapple stem; details: substrate 2.5 μM, protease 0.1 μM, two hours
# Protocol: (§1) The reaction was performed under alkaline conditions.
# (§2) The hydrolysis reaction was performed for two hours. […] Each experiment was repeated at least three times.
# cathepsin L [2] = target: T1, cathepsin L (Homo sapiens, UniProt P07711); assay: Selective hydrolysis by cathepsins, fluorescence (FIG. 20); format: biochemical; details: substrate 1.0 μM, protease 10 mM, 30 minutes
# T1 construct: cathepsins B and L derived from a human liver; purchased Sigma-Aldrich Chemical Co; host or cells: human liver
# T1 sequence (P07711 114-333): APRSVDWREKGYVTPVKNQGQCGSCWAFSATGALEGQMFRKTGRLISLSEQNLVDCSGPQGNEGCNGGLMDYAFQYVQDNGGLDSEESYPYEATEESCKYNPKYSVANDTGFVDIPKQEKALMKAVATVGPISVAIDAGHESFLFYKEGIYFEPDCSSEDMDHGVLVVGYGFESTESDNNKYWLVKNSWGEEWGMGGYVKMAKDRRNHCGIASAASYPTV
# Protocol: as §1
# (§3) The results of experiments were illustrated in FIG. 20. Since the hydrolysis by cathepsin B was faster than the hydrolyses by papain and chymopapain, the reaction was performed with a substrate (concentration: 1.0 μM) and a protease (concentration: […]) of which the concentrations were set lower than those in Experimental Example 2 (substrate (concentration: 2.5 μM) and protease (concentration: 0.1 μM) reacted for two hours) for 30 minutes in FIG. 20. C1, C2, CB, CL, and CS represented on an X-axis respectively denote papain, chymopapain, cathepsin B, cathepsin L, and cathepsin S. Each experiment was repeated at least three times.
# cathepsin S = target: T2, cathepsin S (Homo sapiens, UniProt P25774); assay: as above; format: biochemical; details: substrate 1.0 μM, protease 10 mM, 30 minutes
# T2 construct: cathepsin S derived from a human spleen; purchased Sigma-Aldrich Chemical Co; host or cells: human spleen
# T2 sequence (P25774 115-331): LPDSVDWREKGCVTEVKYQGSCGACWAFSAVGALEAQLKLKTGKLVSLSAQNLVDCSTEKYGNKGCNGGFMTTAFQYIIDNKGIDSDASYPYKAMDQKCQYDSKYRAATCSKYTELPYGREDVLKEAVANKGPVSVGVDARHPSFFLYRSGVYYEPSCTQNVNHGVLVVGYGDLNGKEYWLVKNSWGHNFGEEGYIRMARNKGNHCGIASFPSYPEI
# Protocol: as §1, §3
# cathepsin L [3] = target: T1, cathepsin L; assay: Michaelis-Menten kinetics of hydrolysis by cysteine protease (Table 4); format: biochemical; details: average and standard deviation, at least 3 experiments
# Protocol: as §1
# chymotrypsin = target: T3, chymotrypsin (Bos taurus, UniProt P00766); assay: Degree of hydrolysis by protease (Table 3); format: biochemical, bovine; details: after 2 hours, protease 10 μM, substrate 0.2 mM (G1-G3, L1-L3) or 0.1 mM (G4, L4), n.d. = no hydrolysis was detected, hydrolysate Gly-INH (G), Lys-INH (L1-L3)
# T3 construct: chymotrypsin and trypsin derived from fetal bovine pancreas; purchased Sigma-Aldrich Chemical Co; host or cells: bovine pancreas
# Protocol: (§4) A hydrolysate was measured using a HPLC system.
# trypsin [4] = target: T4, trypsin (Bos taurus, UniProt P00760); assay: Degree of hydrolysis by protease (Table 3); format: biochemical, bovine; details: after 2 hours; protease 10 μM; substrate 0.2 mM (G1-G3, L1-L3) or 0.1 mM (G4, L4); n.d. = no hydrolysis was detected; hydrolysate INH
# T4 construct: chymotrypsin and trypsin derived from fetal bovine pancreas; purchased Sigma-Aldrich Chemical Co; host or cells: bovine pancreas
# T4 sequence (P00760 24-246): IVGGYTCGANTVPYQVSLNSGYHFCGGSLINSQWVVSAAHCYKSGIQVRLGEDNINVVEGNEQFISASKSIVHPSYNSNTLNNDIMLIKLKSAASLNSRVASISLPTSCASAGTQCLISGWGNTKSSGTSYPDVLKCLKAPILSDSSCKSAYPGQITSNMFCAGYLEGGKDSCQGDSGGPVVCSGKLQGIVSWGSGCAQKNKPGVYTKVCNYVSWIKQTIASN
# Protocol: as §4
# cathepsin B [5] = target: T5, cathepsin B (Homo sapiens, UniProt P07858); assay: Michaelis-Menten kinetics of hydrolysis by cysteine protease (Table 4); format: biochemical; set-up: cathepsins B and L derived from a human liver; purchased Sigma-Aldrich Chemical Co; host or cells: human liver; details: average and standard deviation, at least 3 experiments
# Protocol: as §1
# papain [6] = target: T6, papain (Carica papaya, UniProt P00784); assay: Degree of hydrolysis by protease (Table 3); format: biochemical, papaya latex; details: after 2 hours; protease 10 μM; substrate 0.2 mM (G1-G3, L1-L3) or 0.1 mM (G4, L4); hydrolysate INH
# T6 construct: papain and chymopapain derived from papaya latex; purchased Sigma-Aldrich Chemical Co; host or cells: papaya latex
# T6 sequence (P00784 134-345): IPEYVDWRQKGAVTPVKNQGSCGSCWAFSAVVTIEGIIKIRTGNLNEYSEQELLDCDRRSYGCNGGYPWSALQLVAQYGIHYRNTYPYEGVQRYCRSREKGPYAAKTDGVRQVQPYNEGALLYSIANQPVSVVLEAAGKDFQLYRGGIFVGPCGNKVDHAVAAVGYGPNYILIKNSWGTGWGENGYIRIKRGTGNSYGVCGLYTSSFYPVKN
# Protocol: as §4
# papain [7] = target: T6, papain; assay: Michaelis-Menten kinetics of hydrolysis by cysteine protease (Table 4); format: biochemical, papaya latex; details: average and standard deviation, at least 3 experiments
# Protocol: as §1
# chymopapain = target: T7, chymopapain (Carica papaya, UniProt P14080); assay: as above; format: biochemical, papaya latex; details: average and standard deviation, at least 3 experiments
# T7 construct: papain and chymopapain derived from papaya latex; purchased Sigma-Aldrich Chemical Co; host or cells: papaya latex
# T7 sequence (P14080 135-352): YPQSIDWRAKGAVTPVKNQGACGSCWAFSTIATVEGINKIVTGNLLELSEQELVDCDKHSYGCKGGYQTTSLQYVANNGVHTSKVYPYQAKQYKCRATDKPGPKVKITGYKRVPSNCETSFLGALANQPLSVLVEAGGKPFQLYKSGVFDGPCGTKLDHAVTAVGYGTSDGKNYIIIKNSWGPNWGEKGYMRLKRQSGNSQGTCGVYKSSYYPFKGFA
# Protocol: as §1
# pepsin = target: T8, pepsin (Sus scrofa, UniProt P00791); assay: Degree of hydrolysis by protease (Table 3); format: biochemical, pig; details: after 2 hours; protease 10 μM; substrate 0.2 mM (G1-G3, L1-L3) or 0.1 mM (G4, L4); n.d. = no hydrolysis was detected; hydrolysate INH
# T8 construct: pepsin derived from pig gastric mucosa; purchased Sigma-Aldrich Chemical Co; host or cells: pig gastric mucosa
# T8 sequence (P00791 60-385): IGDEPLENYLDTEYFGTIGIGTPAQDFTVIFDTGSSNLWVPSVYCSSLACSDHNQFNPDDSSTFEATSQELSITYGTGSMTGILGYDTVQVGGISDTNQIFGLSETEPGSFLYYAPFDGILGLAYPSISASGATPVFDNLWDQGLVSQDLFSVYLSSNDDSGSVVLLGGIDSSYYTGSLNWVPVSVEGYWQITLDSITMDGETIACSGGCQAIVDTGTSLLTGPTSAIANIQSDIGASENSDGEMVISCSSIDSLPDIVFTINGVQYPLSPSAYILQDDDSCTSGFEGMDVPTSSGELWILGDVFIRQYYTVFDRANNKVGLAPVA
# Protocol: as §4
# trypsin [8] = target: T4, trypsin; assay: Protease-catalyzed hydrolysis, restored DBDY fluorescence (selectivity, FIGS. 11-19); format: biochemical, bovine; details: substrate 2.5 μM, protease 0.1 μM, two hours
# Protocol: as §1, §2
# cathepsin B [9] = target: T5, cathepsin B; assay: Selective hydrolysis by cathepsins, fluorescence (FIG. 20); format: biochemical; set-up: cathepsins B and L derived from a human liver; purchased Sigma-Aldrich Chemical Co; host or cells: human liver; details: substrate 1.0 μM, protease 10 mM, 30 minutes
# Protocol: as §1, §3
# [10] = test system: other proteases (non-cysteine proteases of the 13-protease panel); assay: Protease-catalyzed hydrolysis, restored DBDY fluorescence (selectivity, FIGS. 11-19); format: biochemical; details: substrate 2.5 μM, protease 0.1 μM, two hours
# Protocol: as §1, §2
# thermolysin = thermolysin (Bacillus thermoproteolyticus, UniProt P00800); details: after 2 hours; protease 10 μM; substrate 0.2 mM (G1-G3, L1-L3) or 0.1 mM (G4, L4); n.d. = no hydrolysis was detected; hydrolysate INH
# Sequence of thermolysin (P00800 233-548): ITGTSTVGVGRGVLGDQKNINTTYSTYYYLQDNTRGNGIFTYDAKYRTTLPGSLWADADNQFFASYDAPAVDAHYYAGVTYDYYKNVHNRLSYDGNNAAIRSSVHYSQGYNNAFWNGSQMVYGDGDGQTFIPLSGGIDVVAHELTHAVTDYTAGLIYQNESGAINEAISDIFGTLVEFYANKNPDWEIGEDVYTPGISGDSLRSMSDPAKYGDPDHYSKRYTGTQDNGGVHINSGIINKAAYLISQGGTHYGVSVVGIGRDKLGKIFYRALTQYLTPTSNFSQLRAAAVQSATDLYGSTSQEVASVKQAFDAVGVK
# Protocol: For the meaningful comparison of proteases, a hydrolysis reaction was performed under the optimum conditions as reported in other documents (regarding chymotrypsin, subtilisin, thermolysin and pepsin, refer to R. Beynon, J. S. Bond, Proteolytic Enzymes (Second Edition), Oxford University Press, 2001, pp. 295-316; regarding trypsin, proteinase K, carboxy peptidase A, collagenase, dispase, aspergillopepsin, papain, chymopapain, bromelain, cathepsin B, cathepsin L, and cathepsin S, refer to the catalog of Sigma-Aldrich Corporation).
# Before the reaction, the mixtures of the reaction buffer solutions and proteases were previously incubated for 30 minutes in a water bath in which the temperature was adjusted to an analysis temperature. The hydrolysis reaction was initiated by adding a substrate dissolved in DMSO. The volume of the added substrate solution was controlled such that the final concentration of DMSO was lower than 1.5% (v/v).
# A hydrolysate was measured using a HPLC system. In order to prepare a sample, a hydrolysis reaction was terminated by adding 2% (v/v) 1M HCl with respect to a serine protease, cysteine protease and metalloprotease, and adding 1M NaOH with respect to an aspartic protease. The separation was performed using the mixture of 10 mM-ammonium bicarbonate and acetonitrile as an eluent in C-18 column (particle size: 5 μm, 250 mm×4.6 mm, pore size: 80 Å, Phenomenex, USA). The elution was performed for 15 minutes, while the linear gradient of acetonitrile was increased from 0 to 60%. The flow rate and separation temperature of the eluent were maintained at 1 mL min^−1 and 35° C. The hydrolysate was detected at a wavelength of 254 nm.
# Based on the report that a hydrophobic amino acid such as phenylalanine was preferred at a P2 position in most of the papain-like cysteine proteases, Boc-aromatic amino acid-Gly-INH and Boc-aromatic amino acid-Lys-INH were prepared in particular, and experimented as a substrate with respect to chymotrypsin, trypsin, papain, pepsin and thermolysis.
compound,measurement,setting,value
"CC(C)(C)OC(=O)NC(Cc1ccc(O)c(-c2cc(CC(NC(=O)OC(C)(C)C)C(=O)NC(CCCCN)C(=O)NNC(=O)c3ccncc3)ccc2O)c1)C(=O)NC(CCCCN)C(=O)NNC(=O)c1ccncc1 (centres unmarked) [Substrate L4, DBDY-(Lys-INH)2]",hydrolysis by cysteine proteases (increased fluorescence),[1],hydrolyzed; also recorded: selectivity for cysteine proteases
same,hydrolysis by cathepsin L,cathepsin L [2],hydrolyzed
same,hydrolysis by cathepsin S,cathepsin S,not hydrolyzed
same,Kcat,cathepsin L [3],0.00333 ± 0.00017 s⁻¹
same,Km,cathepsin L [3],1.17 ± 0.09 µM
same,degree of hydrolysis by Chymotrypsin,chymotrypsin,7.15 ± 0.47 ^c %
same,degree of hydrolysis by Chymotrypsin,chymotrypsin; listed as DBDY-(Lys-INH)2,hardly hydrolyzed
same,degree of hydrolysis by Trypsin,trypsin [4],46.8 ± 1.7%
same,Kcat,cathepsin B [5],0.0362 ± 0.0025 s⁻¹
same,Km,cathepsin B [5],2.01 ± 0.05 µM
same,degree of hydrolysis by Papain,papain [6],44.9 ± 2.8%
same,Kcat,papain [7],0.0173 ± 0.00183 s⁻¹
same,Km,papain [7],7.2 ± 0.8 µM
same,Kcat,chymopapain,0.0005 ± 0.00017 s⁻¹
same,Km,chymopapain,2.2 ± 0.28 µM
same,degree of hydrolysis by Pepsin,pepsin,1.04 ± 0.03%
same,hydrolysis by trypsin (increased fluorescence),trypsin [8],hydrolyzed; also recorded: slightly hydrolyzed
same,hydrolysis by cathepsin B,cathepsin B [9],hydrolyzed
"CC(C)(C)OC(=O)NC(Cc1ccc(O)c(-c2cc(CC(NC(=O)OC(C)(C)C)C(=O)NCC(=O)NNC(=O)c3ccncc3)ccc2O)c1)C(=O)NCC(=O)NNC(=O)c1ccncc1 (centres unmarked) [Substrate G4, DBDY-(Gly-INH)2]",hydrolysis by cysteine proteases (increased fluorescence),[1],showed sensitivity and selectivity for the cysteine protease; also recorded: selectivity for cysteine proteases
same,hydrolysis by cathepsin L,cathepsin L [2],hydrolyzed only by cathepsin B
same,hydrolysis by cathepsin S,cathepsin S,not hydrolyzed
same,hydrolysis by other (non-cysteine) proteases,[10],no hydrolysis by other proteases
same,Kcat,cathepsin L [3],0.0015 ± 0.00033 s⁻¹
same,Km,cathepsin L [3],12.9 ± 3.69 µM
same,degree of hydrolysis by Chymotrypsin,chymotrypsin,hardly hydrolyzed
same,Kcat,cathepsin B [5],0.0112 ± 0.001 s⁻¹
same,Km,cathepsin B [5],2.88 µM
same,degree of hydrolysis by Papain,papain [6],62.2 ± 2.1%
same,Kcat,papain [7],0.0257 ± 0.005 s⁻¹
same,Km,papain [7],7.72 ± 1.25 µM
same,Kcat,chymopapain,0.00567 ± 0.0005 s⁻¹
same,Km,chymopapain,4 ± 0.25 µM
same,degree of hydrolysis by Pepsin,pepsin,2.98 ± 0.07%
same,degree of hydrolysis by Thermolysin,thermolysin,0.74 ± 0.03%
same,hydrolysis by cathepsin B,cathepsin B [9],hydrolyzed only by cathepsin B
